Results as given in PubChem BioAssay AID602131 (Sanford-Burnham Center for Chemical Genomics, 2011).
pIC50: −log10 of the molar value. Active and inactive are the calls of the source.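 How the source made its calls: active means IC50 at or below 20 µM; inactive means the rest.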

target: glucose-6-phosphate dehydrogenase-6-phosphogluconolactonase (PfGluPho), Plasmodium falciparum 3D7; experiment: PfGluPho enzyme inhibitors, SAR follow-up, biochemical, fluorescence intensity, dose response, set 3 (AID 602131); conditions: recombinant PfGluPho, NADPH resazurin-diaphorase fluorescence

SMILES | pIC50 | IC50
CCN1CCCC1CNC(=O)c1ccc2c(c1)NC(=O)C(Cc1ccccc1F)S2 (centres undefined) |  | > 80 µM (inactive)
O=C(NCCN1CCOCC1)c1ccc2c(c1)NC(=O)c1ccccc1S2 |  | > 80 µM (inactive)
CCN1CCCC1CNC(=O)c1ccc2c(c1)NC(=O)/C(=C/c1ccc3ccccc3c1)S2 (centres undefined) | 5.62 | 
CCN1CCC[C@@H]1CNC(=O)c1ccc2c(c1)NC(=O)c1ccccc1S2 | 5.30 | 
CCC(C)N1CCCC1CNC(=O)c1ccc2c(c1)NC(=O)c1ccccc1S2 (centres undefined) | 5.03 | 
CCN1CCCC1CNC(=O)c1ccc2c(c1)NC(=O)/C(=C/c1ccc(F)cc1)S2 (centres undefined) | 5.85 | 
O=C(NCCNC1CCCCC1)c1ccc2c(c1)NC(=O)c1ccccc1S2 |  | inactive
CCC(C)N(CCNC(=O)c1ccc2c(c1)NC(=O)c1ccccc1S2)C1CCCCC1 (centres undefined) | 4.85 | 
CCN1CCC[C@H]1CNC(=O)c1ccc2c(c1)NC(=O)c1ccccc1S2 |  | inactive
O=C(NCCN1CCCCC1)c1ccc2c(c1)NC(=O)c1ccccc1S2 |  | inactive
CCN(CC)CCCC(C)Nc1ccnc2cc(Cl)ccc12 (centres undefined) |  | > 80 µM (inactive)
NC1CCN(C(=O)c2ccc3c(c2)NC(=O)c2ccccc2S3)C1 (centres undefined) |  | > 80 µM (inactive)

The next lines start with the values.

pIC50 | IC50 | SMILES
6.05 |  | CCN1CCC[C@@H]1CNC(=O)c1ccc2c(c1)NC(=O)/C(=C/c1ccccc1F)S2
 | > 80 µM (inactive) | NCCNC(=O)c1ccc2c(c1)NC(=O)c1ccccc1S2
 | inactive | NC1CCN(C(=O)c2ccc3c(c2)NC(=O)/C(=C/c2ccccc2F)S3)C1 (centres undefined)
 | > 80 µM (inactive) | CN(C)c1ccccc1CNC(=O)c1ccc2c(c1)NC(=O)/C(=C/c1ccccc1F)S2
5.16 |  | CCN(CC)CCNC(=O)c1ccc2c(c1)NC(=O)/C(=C/c1ccccc1F)S2
 | > 80 µM (inactive) | CC(C)(C)OC(=O)N1CCCC1CNC(=O)c1ccc2c(c1)NC(=O)/C(=C/c1ccccc1F)S2 (centres undefined)
5.18 |  | CCN1CCC[C@H]1CNC(=O)c1ccc2c(c1)NC(=O)/C(=C/c1ccccc1F)S2
